Laboratory results: patent US20250250284A1, “MACROCYCLE COMPOUNDS USEFUL AS KRAS INHIBITORS” (Hoffmann-La Roche Inc., priority 2022, published 2025)

Assays:
NCI-H358 cells = assay: Cell viability assay (Cell Counting Kit-8), KRAS G12C; assay type: cell-based; conditions: Homo sapiens, 72 hrs incubation, CCK-8
Method: (§1) The purpose of this cellular assay was to determine the effects of test compounds on the proliferation of human cancer cell lines NCI-H358 (ATCC-CRL5807) cells, AGS (ATCC-CRL-1739) cells, SW620 (ATCC-CCL-227) over a 3-day treatment period by quantifying the amount of NADPH present at endpoint using Cell Counting Kit-8.
(§2) Cells were seeded at 5,000 cells/well (NCI-H358), 2,000 cells/well (AGS) 2,000 cells/well (SW620) in 96-well assay plates (Corning-3699) and incubated overnight. On the day of the assay, diluted compounds were then added in a final concentration of 0.5% DMSO. After 72 hrs incubation, a tenth of the volume of cell counting kit 8 (Dnjindo-CK04) was added into each well. Read the signal (OD450 minus OD650) using EnVision after 2 hrs incubation. IC50 was determined by fitting a 4-parameter sigmoidal concentration response model.

AGS cells = assay: Cell viability assay (Cell Counting Kit-8), KRAS G12D; assay type: cell-based; conditions: Homo sapiens, 72 hrs incubation, CCK-8
Method: as §1, §2

SW620 cells = assay: Cell viability assay (Cell Counting Kit-8), KRAS G12V; assay type: cell-based; conditions: Homo sapiens, SW-620, 72 hrs incubation, CCK-8
Method: as §1, §2

KRAS G12C-BRAF complex = KRAS G12C-BRAF complex (Homo sapiens (Human), UniProt P01116+P62937, G12C); assay: KRAS-BRAF with CYPA (500 nM) interaction assay (TR-FRET), G12C; assay type: binding; conditions: GMPPNP loaded 6His-KRAS, GST-BRAF RBD, 3 hours
Sequence of KRAS G12C-BRAF complex (P01116-2 other isoform, or with tags, fused parts or gaps G12C): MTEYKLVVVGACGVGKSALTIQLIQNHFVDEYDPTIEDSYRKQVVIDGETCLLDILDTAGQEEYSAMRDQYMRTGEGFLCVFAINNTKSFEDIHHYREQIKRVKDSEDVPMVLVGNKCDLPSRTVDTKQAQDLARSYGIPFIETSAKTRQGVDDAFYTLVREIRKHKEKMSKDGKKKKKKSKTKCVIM
Sequence of KRAS G12C-BRAF complex (P62937 whole entry): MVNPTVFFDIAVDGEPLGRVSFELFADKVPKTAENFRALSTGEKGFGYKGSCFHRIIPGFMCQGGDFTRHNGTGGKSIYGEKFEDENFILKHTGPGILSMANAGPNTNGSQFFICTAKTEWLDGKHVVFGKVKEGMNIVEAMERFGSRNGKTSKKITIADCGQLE
Method: (§3) KRAS-BRAF with CYPA (500 nM) Interaction Assay
(§4) In this example, TR-FRET was also used to measure the compound or compound-CYPA dependent disruption of the KRAS G12C-BRAF complex. This protocol was also used to measure disruption of KRAS G12D or KRAS G12V binding to BRAF by a compound of the invention, respectively. In assay buffer containing 25 mM HEPES PH=7.4 (4-(2-hydroxyethyl)-1-piperazineethanesulfonic acid, Thermo, 15630080), 0.002% Tween20, 0.1% BSA, 100 mM NaCl, 5 mM MgCl2, 10 μM GMPPNP (Guanosine 5′-[β,γ-imido]triphosphate trisodium salt hydrate, Sigma, G0635), tagless CYPA, GMPPNP loaded 6His-KRAS proteins, and GST-BRAF^RBD were mixed in a well of a 384-well assay plate at final concentrations of 50 nM, 6.25 nM and 1 nM, respectively. Compound was present in plate wells as a 16-point 3-fold dilution series starting at a final concentration of 10 μM and incubated for 3 hours. A mixture of MAb Anti-6His-XL665 (Cisbio, 61HISXLB) and Mab anti-GST-TB cryptate (Cisbio, 61GSTTLB) was then added at a final concentration of 6.67 nM and 0.21 nM, respectively, and the plate was incubated for an additional 1.5 hours. TR-FRET signal was read on a PHERstar FSX microplate reader (Ex320 nm, Em 665/615 nm). Compounds that facilitate disruption of the KRAS-BRAF complex were identified as those eliciting a decrease in the TR-FRET ratio relative to DMSO control wells.

[1] = target: KRAS G12D binding to BRAF (Homo sapiens (Human), UniProt P01116+P62937, G12D); assay: KRAS-BRAF with CYPA (500 nM) interaction assay (TR-FRET), G12D; conditions: GMPPNP loaded 6His-KRAS, GST-BRAF RBD, 3 hours
Sequence of KRAS G12D binding to BRAF (P01116-2 other isoform, or with tags, fused parts or gaps G12D): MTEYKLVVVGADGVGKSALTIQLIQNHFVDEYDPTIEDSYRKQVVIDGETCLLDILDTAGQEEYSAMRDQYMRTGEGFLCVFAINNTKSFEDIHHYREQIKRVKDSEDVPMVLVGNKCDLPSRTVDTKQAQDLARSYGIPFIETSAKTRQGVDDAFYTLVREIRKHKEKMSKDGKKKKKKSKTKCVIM
Sequence of KRAS G12D binding to BRAF (P62937 whole entry): as the sequence (P62937 whole entry) above
Method: as §3, §4

[2] = target: KRAS G12V binding to BRAF (Homo sapiens (Human), UniProt P01116+P62937, G12V); assay: KRAS-BRAF with CYPA (500 nM) interaction assay (TR-FRET), G12V; conditions: GMPPNP loaded 6His-KRAS, GST-BRAF RBD, 3 hours
Sequence of KRAS G12V binding to BRAF (P01116-2 other isoform, or with tags, fused parts or gaps G12V): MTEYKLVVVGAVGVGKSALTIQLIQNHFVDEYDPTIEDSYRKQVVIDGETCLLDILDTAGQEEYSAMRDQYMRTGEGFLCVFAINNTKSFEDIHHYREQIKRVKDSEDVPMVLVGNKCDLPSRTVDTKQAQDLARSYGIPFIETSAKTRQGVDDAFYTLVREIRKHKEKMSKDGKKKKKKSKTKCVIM
Sequence of KRAS G12V binding to BRAF (P62937 whole entry): as the sequence (P62937 whole entry) above
Method: as §3, §4

[3] = system: phosphorylation of ERK, KRAS G12C in NCI-H358 cells; assay: pERK inhibition assay, KRAS G12C; assay type: cell-based; conditions: Homo sapiens, 4 hours of incubation
Method: (§5) This assay is to measure the ability of test compounds in inhibiting the phosphorylation of ERK, the downstream signaling of KRAS G12C in NCI-H358 cells, KRAS G12D in AGS cells, and KRAS G12V in SW620. NCI-H358 (ATCC-CRL5807) cells, AGS (ATCC-CRL-1739) cells, SW620 (ATCC-CCL-227) cells were all grown and maintained using RPMI-1640 medium (Thermo Fisher Scientific) with 10% fetal bovine serum and 1% penicillin/streptomycin. On the day prior to compound addition, cells were plated in tissue culture-treated 96 well plates (Corning-3699) at a density of 30,000 cell/well, 20,000 cell/well, 30,000 cell/well for NCI-H358, AGS and SW620 respectively, and allowed for attachment overnight. Diluted compounds were then added in a final concentration of 0.5% DMSO. After 4 hours of incubation, the medium was removed, 100 μL of 4% formaldehyde was added, and the assay plates were incubated at room temperature for 20 minutes. The plates were then washed once with phosphate buffered saline (PBS), and permeabilized with 100 μL of chilled methanol for 10 minutes. Non-specific antibody binding to the plates was blocked using 50 μL 1×BSA blocking buffer (Thermo-37520, 10-fold dilution by Phosphate-Buffered Saline Tween (PBST) for at least 1 hour at room temperature.
(§6) The amount of phosphor-ERK was determined using an antibody specific for phosphorylated form of ERK. Primary antibody (pERK, CST-4370, Cell Signaling Technology) was diluted 1:300 in blocking buffer, with 50 μL aliquoted to each well, and incubated overnight at 4° C. Cells was washed five times for 5 minutes with PBST. Secondary antibody (HRP-linked anti-rabbit IgG, CST-7074, Cell Signaling Technology) was diluted 1:1000 in blocking buffer, and 50 μL was added to each well and incubated 1-2 hrs at room temperature. Cells was washed 5 times for 5 minutes with PBST, 100 μL TMB ELISA substrate (abcam-ab171523) were added and gently shake for 20 minutes. 50 μL stop solution (abcam-ab171529) were added, and then read the signal (OD450) by EnVision.
(§7) IC50 was determined by fitting a 4-parameter sigmoidal concentration response model.

[4] = system: phosphorylation of ERK, KRAS G12D in AGS cells; assay: pERK inhibition assay, KRAS G12D; assay type: cell-based; conditions: Homo sapiens, 4 hours of incubation
Method: as §5, §6, §7

[5] = system: phosphorylation of ERK, KRAS G12V in SW620; assay: pERK inhibition assay, KRAS G12V; assay type: cell-based; conditions: Homo sapiens, SW-620; SW620 cells, 4 hours of incubation
Method: as §5, §6, §7

IC50 (NCI-H358 cells) [µM] | IC50 (AGS cells) [µM] | IC50 (SW620 cells) [µM] | IC50 [3] [µM] | IC50 [4] [µM] | IC50 [5] [µM] | SMILES | IC50 (KRAS G12C-BRAF complex) [µM] | IC50 [1] [µM] | IC50 [2] [µM]
0.023 | 0.089 | 0.012 | 0.057 | 0.056 | 0.013 | CCn1c(-c2cc(N3CCN(C)CC3)cnc2[C@H](C)OC)c2c3cc(c(F)cc31)-c1csc(n1)C[C@H](NC(=O)[C@H]1C[C@@H]1C#N)C(=O)N1CCC[C@H](N1)C(=O)OCC(C)(C)C2 [Example 5, (1S,2S)-2-cyano-N-[(7S,13S)-21-ethyl-24-fluoro-(20M)-20-[2-[(1S)-1-methoxyethyl]-5-(4-methylpiperazin-1-yl)-3-pyridyl]-17,17-dimethyl-8,14-dioxo-15-oxa-4-thia-9,21,27,28-tetrazapentacyclo[17.5.2.1^2,5.1^9,13.0^22,26]octacosa-1(25),2,5(28),19,22(26),23-hexaen-7-yl]cyclopropanecarboxamide] | – | – | –
0.005 | 0.111 | 0.007 | 0.021 | 0.028 | 0.007 | CCn1c(-c2cc(N3CCOCC3)cnc2[C@H](C)OC)c2c3cc(c(F)cc31)-c1csc(n1)C[C@H](NC(=O)[C@H]1C[C@@H]1C(F)F)C(=O)N1CCC[C@H](N1)C(=O)OCC(C)(C)C2 (atropisomer, axis not shown; (M)) [Example 11, (1S,2S)-2-(difluoromethyl)-N-[(7S,13S)-21-ethyl-24-fluoro-(20M)-20-[2-[(1S)-1-methoxyethyl]-5-morpholino-3-pyridyl]-17,17-dimethyl-8,14-dioxo-15-oxa-4-thia-9,21,27,28-tetrazapentacyclo[17.5.2.1^2,5.1^9,13.0^22,26]octacosa-1(25),2,5(28),19,22(26),23-hexaen-7-yl]cyclopropanecarboxamide] | – | – | –
0.011 | 0.244 | 0.016 | 0.033 | 0.053 | 0.009 | CO[C@@H](C)c1ncc(N2CCOCC2)cc1-c1c2c3cc(c(F)cc3n1CC(F)(F)F)-c1csc(n1)C[C@H](NC(=O)[C@H]1C[C@@H]1C)C(=O)N1CCC[C@H](N1)C(=O)OCC(C)(C)C2 (atropisomer, axis not shown; (M)) [Example 12, (1S,2S)—N-[(7S,13S)-24-fluoro-(20M)-20-[2-[(1S)-1-methoxyethyl]-5-morpholino-3-pyridyl]-17,17-dimethyl-8,14-dioxo-21-(2,2,2-trifluoroethyl)-15-oxa-4-thia-9,21,27,28-tetrazapentacyclo[17.5.2.1^2,5.1^9,13.0^22,26]octacosa-1(25),2,5(28),19,22(26),23-hexaen-7-yl]-2-methyl-cyclopropanecarboxamide] | – | – | –
0.079 | 0.316 | 0.035 | 0.079 | 0.116 | 0.025 | CCn1c(-c2cc(N3CCN(C)CC3)cnc2[C@H](C)OC)c2c3cc(c(F)cc31)-c1csc(n1)C[C@H](NC(=O)[C@@H]1C[C@H]1C#N)C(=O)N1CCC[C@H](N1)C(=O)OCC(C)(C)C2 [Example 6, (1R,2R)-2-cyano-N-[(7S,13S)-21-ethyl-24-fluoro-(20M)-20-[2-[(1S)-1-methoxyethyl]-5-(4-methylpiperazin-1-yl)-3-pyridyl]-17,17-dimethyl-8,14-dioxo-15-oxa-4-thia-9,21,27,28-tetrazapentacyclo[17.5.2.1^2,5.1^9,13.0^22,26]octacosa-1(25),2,5(28),19,22(26),23-hexaen-7-yl]cyclopropanecarboxamide] | – | – | –

SMILES | IC50 (NCI-H358 cells) [µM] | IC50 (AGS cells) [µM] | IC50 (SW620 cells) [µM] | IC50 [3] [µM] | IC50 [4] [µM] | IC50 [5] [µM] | IC50 (KRAS G12C-BRAF complex) [µM] | IC50 [1] [µM] | IC50 [2] [µM]
CO[C@@H](C)c1ncc(N2CCN(C)CC2)cc1-c1c2c3cc(c(F)cc3n1CC(F)(F)F)-c1csc(n1)C[C@H](NC(=O)[C@H]1C[C@@H]1C)C(=O)N1CCC[C@H](N1)C(=O)OCC(C)(C)C2 (atropisomer, axis not shown; (M)) [Example 4, (1S,2S)—N-[(7S,13S)-24-fluoro-(20M)-20-[2-[(1S)-1-methoxyethyl]-5-(4-methylpiperazin-1-yl)-3-pyridyl]-17,17-dimethyl-8,14-dioxo-21-(2,2,2-trifluoroethyl)-15-oxa-4-thia-9,21,27,28-tetrazapentacyclo[17.5.2.1^2,5.1^9,13.0^22,26]octacosa-1(25),2,5(28),19,22(26),23-hexaen-7-yl]-2-methyl-cyclopropanecarboxamide] | 0.019 | 1.27 | 0.013 | 0.02 | 0.047 | 0.007 | 0.036 | 0.544 | 0.095
CCn1c(-c2cc(N3CCN(C)CC3)cnc2[C@H](C)OC)c2c3cc(c(F)cc31)-c1csc(n1)C[C@H](NC(=O)[C@H]1C[C@@H]1C)C(=O)N1CCC[C@H](N1)C(=O)OCC(C)(C)C2 (atropisomer, axis not shown; (M)) [Example 1, (1S,2S)—N-[(7S,13S)-21-ethyl-24-fluoro-(20M)-20-[2-[(1S)-1-methoxyethyl]-5-(4-methylpiperazin-1-yl)-3-pyridyl]-17,17-dimethyl-8,14-dioxo-15-oxa-4-thia-9,21,27,28-tetrazapentacyclo[17.5.2.1^2,5.1^9,13.0^22,26]octacosa-1(25),2,5(28),19,22(26),23-hexaen-7-yl]-2-methyl-cyclopropanecarboxamide] | 0.018 | 4.63 | 0.009 | 0.011 | 0.034 | 0.004 | 0.108 | 0.915 | 0.211
CCn1c(-c2cc(N3CCOCC3)cnc2[C@H](C)OC)c2c3cc(c(F)cc31)-c1csc(n1)C[C@H](NC(=O)[C@H]1C[C@@H]1C)C(=O)N1CCC[C@H](N1)C(=O)OCC(C)(C)C2 (atropisomer, axis not shown; (M)) [Example 8, (1S,2S)—N-[(7S,13S)-21-ethyl-24-fluoro-(20M)-20-[2-[(1S)-1-methoxyethyl]-5-morpholino-3-pyridyl]-17,17-dimethyl-8,14-dioxo-15-oxa-4-thia-9,21,27,28-tetrazapentacyclo[17.5.2.1^2,5.1^9,13.0^22,26]octacosa-1(25),2,5(28),19,22(26),23-hexaen-7-yl]-2-methyl-cyclopropanecarboxamide] | 0.016 | 1.49 | 0.013 | 0.023 | 0.056 | 0.008 | 0.16 | 1.67 | 0.143
